In patent US20260062443A1 (ALEXION PHARMACEUTICALS, INC., priority 2022, published 2026) one finds IC50 data, which are given here for 22 molecules.

The experiment has as its target T1, Human complement C1s enzyme (Homo sapiens, UniProt P09871).
T1 sequence (P09871 438-688 limits assumed): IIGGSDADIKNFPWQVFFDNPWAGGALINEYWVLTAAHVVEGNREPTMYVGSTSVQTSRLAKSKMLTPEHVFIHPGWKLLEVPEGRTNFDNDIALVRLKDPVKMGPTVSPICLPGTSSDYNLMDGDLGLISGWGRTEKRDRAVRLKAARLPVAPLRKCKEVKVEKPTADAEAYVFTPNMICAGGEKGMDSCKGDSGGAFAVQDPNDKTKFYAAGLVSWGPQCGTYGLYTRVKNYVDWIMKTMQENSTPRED
T1 sequence (P09871 16-437 partner limits assumed): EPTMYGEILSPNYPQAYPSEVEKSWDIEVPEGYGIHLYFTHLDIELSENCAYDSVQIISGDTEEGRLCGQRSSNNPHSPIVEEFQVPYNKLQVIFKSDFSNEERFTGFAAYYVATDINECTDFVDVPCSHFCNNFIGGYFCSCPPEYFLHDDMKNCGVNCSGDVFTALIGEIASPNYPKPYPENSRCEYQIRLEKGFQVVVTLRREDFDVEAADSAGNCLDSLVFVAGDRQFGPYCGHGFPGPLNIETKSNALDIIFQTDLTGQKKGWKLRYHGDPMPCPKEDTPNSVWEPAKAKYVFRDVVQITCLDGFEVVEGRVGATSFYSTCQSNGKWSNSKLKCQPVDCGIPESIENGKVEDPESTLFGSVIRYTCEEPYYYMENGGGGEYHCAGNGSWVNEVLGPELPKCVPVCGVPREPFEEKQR
The experiment in a line: Human C1s enzyme assay. The following applies: human complement C1s enzyme 1.16 nM, substrate Z-L-Lys-SBzl 100 μM, 5 min preincubation; read-out: IC50 (Stars), C1s Inhibiting Activity. Format: biochemical. The procedure: Other standard complement assays are also available.
Human complement C1s enzyme (purified from human serum, Complement Technology, Inc.) at 1.16 nM final concentration was incubated with test compound at various concentrations for 5 min at room temperature in 50 mM Tris, 1 M NaCl, pH 7.5. A synthetic substrate Z-L-Lys-SBzl and DTNB (Ellman's reagent) were added to final concentrations of 100 μM each. Absorbance at 405 nm (A405) was recorded at 30 second intervals for 30 min using a microplate spectrophotometer. IC50 values were calculated by nonlinear regression of complement C1 s reaction rates as a function of test compound concentration.
ND indicates a compound for which the IC50 value is not determined.

Some results are limits rather than exact numbers.

As for `C[C@H](NC(=O)[C@@H]1C[C@@H](OC(F)F)CN1C(=O)CNC(=O)c1ccc(Oc2ccccc2)cc1)c1cc2cnccc2[nH]1` [Compound 22, (2S,4R)-N-((S)-1-(1H-pyrrolo[3,2-c]pyridin-2-yl)ethyl)-4-(difluoromethoxy)-1-((4-phenoxybenzoyl)glycyl) pyrrolidine-2-carboxamide], the IC50 lay within 100 to 1000 nM.
As for `C[C@H](NC(=O)[C@@H]1CC2(CN1C(=O)CNC(=O)c1ccc3c(c1)-c1ccccc1C3(F)F)OCCO2)c1cc2cnccc2[nH]1` [Compound 23, (S)-N-((S)-1-(1H-pyrrolo[3,2-c]pyridin-2-yl)ethyl)-7-((9,9-difluoro-9H-fluorene-3-carbonyl)glycyl)-1,4-dioxa-7-azaspiro[4.4]nonane-8-carboxamide], the figure is greater than 1000 nM.
As for `O=C(NCC(=O)N1CC2(C[C@H]1C(=O)NCc1cc3cnccc3[nH]1)OCCO2)c1ccc2c(c1)Sc1ccccc1O2` [Compound 24, (S)-N-((1H-pyrrolo[3,2-c]pyridin-2-yl)methyl)-7-((phenoxathiine-2-carbonyl)glycyl)-1,4-dioxa-7-azaspiro[4.4]nonane-8-carboxamide], the IC50 was less than 100 nM.
As for `COC[C@@]1(F)C[C@@H](C(=O)NCc2cc3cnccc3[nH]2)N(C(=O)CNC(=O)c2ccc3c(c2)Oc2ccccc2S3)C1` [Compound 25, (2S,4R)-N-((1H-pyrrolo[3,2-c]pyridin-2-yl)methyl)-4-fluoro-4-(methoxymethyl)-1-((phenoxathiine-3-carbonyl)glycyl)pyrrolidine-2-carboxamide], the figure is less than 100 nM.
Consider `O=C(NCC(=O)N1C[C@@](F)(CF)C[C@H]1C(=O)NCc1cc2cnccc2[nH]1)c1ccc2c(c1)Oc1ccccc1S2` [Compound 26, (2S,4R)-N-((1H-pyrrolo[3,2-c]pyridin-2-yl)methyl)-4-fluoro-4-(fluoromethyl)-1-((phenoxathiine-3-carbonyl)glycyl)pyrrolidine-2-carboxamide], for which the 50% inhibitory concentration (IC50) was less than 100 nM.
As for `CS(=O)(=O)[C@@H]1C[C@@H](C(=O)NCc2cc3cnccc3[nH]2)N(C(=O)CNC(=O)c2ccc3c(c2)Oc2ccccc2S3)C1` [Compound 27, (2S,4R)-N-((1H-pyrrolo[3,2-c]pyridin-2-yl)methyl)-4-(methylsulfonyl)-1-((phenoxathiine-3-carbonyl)glycyl)pyrrolidine-2-carboxamide], the figure is less than 100 nM.
For `C[C@@]12C[C@@H]1N(C(=O)CNC(=O)c1ccc(Oc3ccccc3)cc1)[C@H](C(=O)NCc1cc3cnccc3[nH]1)C2` [Compound 28, (1S,3S,5S)-N-((1H-pyrrolo[3,2-c]pyridin-2-yl)methyl)-5-methyl-2-((4-phenoxybenzoyl)glycyl)-2-azabicyclo[3.1.0]hexane-3-carboxamide] the value was less than 100 nM; for `O=C(NCC(=O)N1CC2(C[C@H]1C(=O)NCc1cc3ccccc3[nH]1)OCCO2)c1ccc2c(c1)Oc1ccccc1S2` [Compound 29, (S)-N-((1H-indol-2-yl)methyl)-7-((phenoxathiine-3-carbonyl)glycyl)-1,4-dioxa-7-azaspiro[4.4]nonane-8-carboxamide], greater than 1000 nM.
With `COC[C@@]1(F)C[C@@H](C(=O)NCc2cc3cnccc3[nH]2)N(C(=O)CNC(=O)c2ccc(Oc3ccccc3)cc2)C1` [Compound 30, (2S,4R)-N-((1H-pyrrolo[3,2-c]pyridin-2-yl)methyl)-4-fluoro-4-(methoxymethyl)-1-((4-phenoxybenzoyl)glycyl) pyrrolidine-2-carboxamide], the IC50 was less than 100 nM.
As for `O=C(NCC(=O)N1CC2(C[C@H]1C(=O)NCc1nc3cnccc3o1)OCCO2)c1ccc2c(c1)Oc1ccccc1S2` [Compound 31, (S)-N-(oxazolo[4,5-c]pyridin-2-ylmethyl)-7-((phenoxathiine-3-carbonyl)glycyl)-1,4-dioxa-7-azaspiro[4.4]nonane-8-carboxamide], the figure is greater than 1000 nM; as for `O=C(NCC(=O)N1CC2(C[C@H]1C(=O)NCc1cc3cnccc3[nH]1)OCCO2)c1ccc(Oc2ccccc2)cc1` [Compound 32, (S)-N-((1H-pyrrolo[3,2-]pyridin-2-yl)methyl)-7-((4-phenoxybenzoyl)glycyl)-1,4-dioxa-7-azaspiro[4.4]nonane-8-carboxamide], less than 100 nM.
In the case of `O=C(NCC(=O)N1CC2(C[C@H]1C(=O)NCc1cc3cnccc3[nH]1)OCCO2)c1ccc(C(=O)c2ccccc2)cc1` [Compound 33, (S)-N-((1H-pyrrolo[3,2-c]pyridin-2-yl)methyl)-7-((4-benzoylbenzoyl)glycyl)-1,4-dioxa-7-azaspiro[4.4]nonane-8-carboxamide], the IC50 is less than 100 nM.
For `O=C(NCC(=O)N1CC2(C[C@H]1C(=O)NCc1cc3ncccc3[nH]1)OCCO2)c1ccc2c(c1)-c1ccccc1C2(F)F` [Compound 34, (S)-N-((1H-pyrrolo[3,2-b]pyridin-2-yl)methyl)-7-((9,9-difluoro-9H-fluorene-3-carbonyl)glycyl)-1,4-dioxa-7-azaspiro[4.4]nonane-8-carboxamide] the value was greater than 1000 nM; for `O=C(NCC(=O)N1CC2(C[C@H]1C(=O)NCc1cc3cnccc3[nH]1)OCCO2)c1ccc2oc3ccccc3c2c1` [Compound 35, (S)-N-((1H-pyrrolo[3,2-c]pyridin-2-yl)methyl)-7-((dibenzo[b,d]furan-2-carbonyl)glycyl)-1,4-dioxa-7-azaspiro[4.4]nonane-8-carboxamide], less than 100 nM; for `O=C(NCC(=O)N1C[C@H](OC(F)F)C[C@H]1C(=O)NCc1cc2cnccc2[nH]1)c1ccc2c(c1)Oc1ccccc1S2` [Compound 36, (2S,4R)-N-((1H-pyrrolo[3,2-c]pyridin-2-yl)methyl)-4-(difluoromethoxy)-1-((phenoxathiine-3-carbonyl)glycyl)pyrrolidine-2-carboxamide], less than 100 nM.
For `O=C(NCC(=O)N1CC2(C[C@H]1C(=O)NCc1cc3cnncc3[nH]1)OCCO2)c1ccc2c(c1)Oc1ccccc1S2` [Compound 37, (S)-N-((1H-pyrrolo[2,3-d]pyridazin-2-yl)methyl)-7-((phenoxathiine-3-carbonyl)glycyl)-1,4-dioxa-7-azaspiro[4.4]nonane-8-carboxamide] the value was less than 100 nM; for `C[C@@H](NC(=O)[C@@H]1CC2(CN1C(=O)CNC(=O)c1ccc3c(c1)-c1ccccc1C3(F)F)OCCO2)c1cc2cnccc2[nH]1` [Compound 38, (S)-N-((R)-1-(1H-pyrrolo[3,2-c]pyridin-2-yl)ethyl)-7-((9,9-difluoro-9H-fluorene-3-carbonyl)glycyl)-1,4-dioxa-7-azaspiro[4.4]nonane-8-carboxamide], less than 100 nM; for `C[C@@H](NC(=O)[C@@H]1C[C@@H](OC(F)F)CN1C(=O)CNC(=O)c1ccc(Oc2ccccc2)cc1)c1cc2cnccc2[nH]1` [Compound 39, (2S,4R)-N-((R)-1-(1H-pyrrolo[3,2-c]pyridin-2-yl)ethyl)-4-(difluoromethoxy)-1-((4-phenoxybenzoyl)glycyl)pyrrolidine-2-carboxamide], less than 100 nM.
Consider `COC[C@@]1(F)C[C@@H](C(=O)N[C@H](C)c2cc3cnccc3[nH]2)N(C(=O)CNC(=O)c2ccc(Oc3ccccc3)cc2)C1` [Compound 40, (2S,4R)-N-((R)-1-(1H-pyrrolo[3,2-c]pyridin-2-yl)ethyl)-4-fluoro-4-(methoxymethyl)-1-((4-phenoxybenzoyl)glycyl) pyrrolidine-2-carboxamide], for which the IC50 lay in the range of 100 to 1000 nM.
As to `O=C(NCC(=O)N1CC2(C[C@H]1C(=O)NCc1nc3cnccc3s1)OCCO2)c1ccc2c(c1)Oc1ccccc1S2` [Compound 41, (S)-7-((phenoxathiine-3-carbonyl)glycyl)-N-(thiazolo[4,5-c]pyridin-2-ylmethyl)-1,4-dioxa-7-azaspiro[4.4]nonane-8-carboxamide], the IC50 is greater than 1000 nM.
Turning to `O=C(NCC(=O)N1CC2(C[C@H]1C(=O)NCc1cc3c(Cl)nccc3[nH]1)OCCO2)c1ccc2c(c1)Oc1ccccc1S2` [Compound 42, (S)-N-((4-chloro-1H-pyrrolo[3,2-c]pyridin-2-yl)methyl)-7-((phenoxathiine-3-carbonyl)glycyl)-1,4-dioxa-7-azaspiro[4.4]nonane-8-carboxamide], the IC50 was greater than 1000 nM.
As to `O=C(NCC(=O)N1CC2(C[C@H]1C(=O)NCc1cc3cnc(Cl)cc3[nH]1)OCCO2)c1ccc2c(c1)Oc1ccccc1S2` [Compound 43, (S)-N-((6-chloro-1H-pyrrolo[3,2-c]pyridin-2-yl)methyl)-7-((phenoxathiine-3-carbonyl)glycyl)-1,4-dioxa-7-azaspiro[4.4]nonane-8-carboxamide], the IC50 is greater than 1000 nM.
